This is an account of results in US20150018311A1, “THERAPEUTIC BORON-CONTAINING COMPOUNDS” (priority 2012, published 2015).

SMILES strings stand for the structures.

Experiment in all cases: Growth in liquid media in presence of test compound
What all share (type): cell-based

Test [1] relates to Mycobacterium tuberculosis (H37Rv).
Test [2] deals with Candida albicans (ATCC 90028). An excerpt: (§1) Test organisms used were the bacterial strains Escherichia coli (ATCC 25922), Pseudomonas aeruginosa (ATCC 27853), Staphylococcus aureus (ATCC 25923), Streptococcus pyogenes (ATCC 19615), and Mycobacterium tuberculosis (H37Rv), and the yeast strain Candida albicans (ATCC 90028).
(§2) The liquid media used for growth were Luria-Bertani (Becton Dickinson, Sparks, Md.) and Mueller-Hinton (bio-Merieux, Paris, France) broths, but with Saburo medium for Candida and Middlebrook 7H9 medium (Difco) for mycobacteria.
(§3) The strains were grown at 37° C. and after suitable cell concentrations had been reached, 100 μL of each cell suspension was added to a tube with growth media and test compound. Cultivation of the bacteria was then carried out in the presence of each test compound at 37° C. and the tubes examined for visible growth. The compounds were tested at concentrations of either 500 mg/l, 50 mg/l or 5 mg/l. This assay was repeated twice.
(§4) Some compounds were only tested against some test organisms. It will be appreciated that the charge of these molecules will depend on the environment, some of the Examples are shown with a suitable counter ion, some without.

Test [3] relates to Escherichia coli (ATCC 25922).
Description: as §1, §2, §3, §4

The test system of test [4] is Staphylococcus aureus (ATCC 25923).
Description: as §1, §2, §3, §4

Test [5] deals with Streptococcus pyogenes (ATCC 19615).
Description: as §1, §2, §3, §4

For test [6], the system named is Pseudomonas aeruginosa (ATCC 27853).
Description: as §1, §2, §3, §4

As to `CC1(C)C2CC3OB(CC(Cc4ccccc4)NC(=O)C(N)CCCNC(=N)N)OC3(C)C1C2` (stereo not drawn) [Compound 4], the “Growth in the presence of test compound, M. tuberculosis” value (from here on “Growth … M. tuberculosis”) is reported as “+” in test [1] (5 mg/L), “−” in test [1] (50 mg/L) and “−” in test [1] (500 mg/L). Besides, the “Growth in the presence of test compound, C. albicans” value (“Growth in the presence … C. albicans” below) is on record as “+” in test [2] (5 mg/L), “+” in test [2] (50 mg/L) and “−” in test [2] (500 mg/L). In addition, the figures for the “Growth in the presence of test compound, E. coli” value (shortened to “Growth in the presence … E. coli”) in test [3] (5 mg/L), in test [3] (50 mg/L) and in test [3] (500 mg/L) were “+”, “+” and “−”, respectively. In addition, the “Growth in the presence of test compound, S. aureus” value (shortened to “Growth in the presence … S. aureus”) was “+” in test [4] (5 mg/L), “+” in test [4] (50 mg/L) and “−” in test [4] (500 mg/L). Further, the “Growth in the presence of test compound, S. pyogenes” value (shortened to “Growth in the presence … S. pyogenes”) is on record as “+” in test [5] (5 mg/L), “+” in test [5] (50 mg/L) and “−” in test [5] (500 mg/L).
As to `CC1(C)C2CC3OB(CC(CCc4ccccc4)NC(=O)C(N)CCCCN)OC3(C)C1C2` (stereo not drawn) [Compound 7], the entries for the “Growth … M. tuberculosis” value in test [1] (5 mg/L), in test [1] (50 mg/L) and in test [1] (500 mg/L) were “+”, “+” and “−”, respectively. The entries for the “Growth in the presence … C. albicans” value in test [2] (5 mg/L), in test [2] (50 mg/L) and in test [2] (500 mg/L) were “+”, “+” and “−”, respectively. For the same compound, the “Growth in the presence … E. coli” value in test [3] (5 mg/L) is reported as “+”; in test [3] (50 mg/L), “+”; in test [3] (500 mg/L), “−”. The entries for the “Growth in the presence of test compound, P. aeruginosa” value (“Growth … P. aeruginosa” for short) in test [6] (5 mg/L), in test [6] (50 mg/L) and in test [6] (500 mg/L) were “+”, “+” and “±”, respectively. Moreover, the “Growth in the presence … S. aureus” value in test [4] (5 mg/L) is reported as “+”; in test [4] (50 mg/L), “+”; in test [4] (500 mg/L), “−”. In addition, the entries for the “Growth in the presence … S. pyogenes” value in test [5] (5 mg/L), in test [5] (50 mg/L) and in test [5] (500 mg/L) were “+”, “+” and “−”, respectively.
`CC1(C)C2CC3OB([C@@H](CNC(=O)[C@@H](N)CCCCN)Cc4ccccc4)O[C@]3(C)C1C2` (stereo partly drawn) [Compound 9]: the “Growth … M. tuberculosis” value in test [1] (5 mg/L), in test [1] (50 mg/L) and in test [1] (500 mg/L) was “−” throughout. Further, the “Growth in the presence … C. albicans” value in test [2] (5 mg/L) is reported as “+”; in test [2] (50 mg/L), “+”; in test [2] (500 mg/L), “−”. The “Growth … P. aeruginosa” value is “+” in test [6] (5 mg/L), “+” in test [6] (50 mg/L) and “±” in test [6] (500 mg/L). Also, the “Growth in the presence … S. aureus” value in test [4] (5 mg/L) was “+”; in test [4] (50 mg/L), “+”; in test [4] (500 mg/L), “−”. Moreover, the “Growth in the presence … S. pyogenes” value was “+” in test [5] (5 mg/L), “+” in test [5] (50 mg/L) and “−” in test [5] (500 mg/L).
As for `CC1(C)C2CC3OB([C@@H](CNC(=O)[C@@H](N)CCCNC(=N)N)Cc4ccccc4)O[C@]3(C)C1C2` (stereo partly drawn) [Compound 11], the “Growth … M. tuberculosis” value in test [1] (5 mg/L) is “±”; in test [1] (50 mg/L), “−”; in test [1] (500 mg/L), “−”. Moreover, the “Growth in the presence … C. albicans” value is listed as “+” in test [2] (5 mg/L), “+” in test [2] (50 mg/L) and “−” in test [2] (500 mg/L). Besides, the “Growth in the presence … E. coli” value was “+” in test [3] (5 mg/L), “+” in test [3] (50 mg/L) and “−” in test [3] (500 mg/L). For the same compound, the “Growth … P. aeruginosa” value in test [6] (5 mg/L) is reported as “+”; in test [6] (50 mg/L), “+”; in test [6] (500 mg/L), “−”. Besides, the “Growth in the presence … S. aureus” value in test [4] (5 mg/L) is given as “+”; in test [4] (50 mg/L), “+”; in test [4] (500 mg/L) it was “−”. In addition, the entries for the “Growth in the presence … S. pyogenes” value in test [5] (5 mg/L), in test [5] (50 mg/L) and in test [5] (500 mg/L) were “+”, “+” and “−”, respectively.
Regarding `CC1(C)C2CC3OB([C@@H](CNC(=O)[C@H](N)CCCCN)Cc4ccccc4)O[C@]3(C)C1C2` (stereo partly drawn) [Compound 12], the entries for the “Growth … M. tuberculosis” value in test [1] (5 mg/L), in test [1] (50 mg/L) and in test [1] (500 mg/L) were “±”, “−” and “−”, respectively. Moreover, the figures for the “Growth in the presence … C. albicans” value in test [2] (5 mg/L), in test [2] (50 mg/L) and in test [2] (500 mg/L) were “+”, “+” and “−”, respectively. For the same compound, the “Growth in the presence … E. coli” value in test [3] (5 mg/L) is “+”; in test [3] (50 mg/L), “+”; in test [3] (500 mg/L), “−”. The results for the “Growth … P. aeruginosa” value in test [6] (5 mg/L), in test [6] (50 mg/L) and in test [6] (500 mg/L) were “+”, “+” and “±”, respectively. In addition, the “Growth in the presence … S. aureus” value in test [4] (5 mg/L) is recorded as “+”; in test [4] (50 mg/L), “+”; in test [4] (500 mg/L) it was “±”. Also, the “Growth in the presence … S. pyogenes” value in test [5] (5 mg/L) is “+”; in test [5] (50 mg/L), “+”; in test [5] (500 mg/L), “−”.
For the compound `CC1(C)C2CC3OB(C(CNC(=O)C(N)CCCCN)Cc4ccccc4)OC3(C)C1C2` (stereo not drawn) [Compound 13], the “Growth … M. tuberculosis” value is reported as “+” in test [1] (5 mg/L), “−” in test [1] (50 mg/L) and “−” in test [1] (500 mg/L). Further, the “Growth in the presence … C. albicans” value in test [2] (5 mg/L) is given as “+”; in test [2] (50 mg/L), “+”; in test [2] (500 mg/L) it was “−”. Moreover, the “Growth in the presence … E. coli” value is “+” in test [3] (5 mg/L), “+” in test [3] (50 mg/L) and “−” in test [3] (500 mg/L). Moreover, the “Growth … P. aeruginosa” value is reported as “+” in test [6] (5 mg/L), “+” in test [6] (50 mg/L) and “−” in test [6] (500 mg/L). Moreover, the “Growth in the presence … S. aureus” value in test [4] (5 mg/L) is recorded as “+”; in test [4] (50 mg/L), “+”; in test [4] (500 mg/L) it was “−”. Further, the “Growth in the presence … S. pyogenes” value in test [5] (5 mg/L) is “+”; in test [5] (50 mg/L), “+”; in test [5] (500 mg/L), “−”.
Regarding `CC1(C)C2CC3OB([C@H](CNC(=O)[C@@H](N)Cc4ccccc4)Cc4ccccc4)O[C@@]3(C)C1C2` (stereo partly drawn) [Compound 14], the entries for the “Growth … M. tuberculosis” value in test [1] (5 mg/L), in test [1] (50 mg/L) and in test [1] (500 mg/L) were “+”, “−” and “−”, respectively. Further, the “Growth in the presence … C. albicans” value in test [2] (5 mg/L) is reported as “+”; in test [2] (50 mg/L) it was “±”; in test [2] (500 mg/L) it was “±”. In addition, the “Growth in the presence … E. coli” value in test [3] (5 mg/L), in test [3] (50 mg/L) and in test [3] (500 mg/L) was “+” each time. Moreover, the “Growth … P. aeruginosa” value in test [6] (5 mg/L) is “+”; in test [6] (50 mg/L), “+”; in test [6] (500 mg/L), “−”. Moreover, the “Growth in the presence … S. aureus” value in test [4] (5 mg/L), in test [4] (50 mg/L) and in test [4] (500 mg/L) was “+” each time. In addition, the “Growth in the presence … S. pyogenes” value in test [5] (5 mg/L) is recorded as “+”; in test [5] (50 mg/L) it was “+”; in test [5] (500 mg/L), “±”.
As for `C[C@@H](B1OC2CC3CC(C3(C)C)[C@@]2(C)O1)[C@@H](Cc1ccccc1)NC(=O)[C@@H]1CCCN1` (stereo partly drawn) [Compound 29], the entries for the “Growth … M. tuberculosis” value in test [1] (5 mg/L), in test [1] (50 mg/L) and in test [1] (500 mg/L) were “+”, “+” and “−”, respectively. Further, the “Growth in the presence … C. albicans” value was “+” in test [2] (5 mg/L), “+” in test [2] (50 mg/L) and “±” in test [2] (500 mg/L). Moreover, the “Growth … P. aeruginosa” value is “+” in test [6] (5 mg/L), “+” in test [6] (50 mg/L) and “±” in test [6] (500 mg/L). Also, the figures for the “Growth in the presence … S. aureus” value in test [4] (5 mg/L), in test [4] (50 mg/L) and in test [4] (500 mg/L) were “+”, “+” and “−”, respectively. The “Growth in the presence … S. pyogenes” value in test [5] (5 mg/L) was “+”; in test [5] (50 mg/L), “+”; in test [5] (500 mg/L), “−”.
